Experimental data taken from patent US7271161B2, “Platinum complexes as antitumor agents in combination with biochemical modulation” (Board of Regents, the University of Texas System, priority 2002, dated 2007).
Like-named read-outs stand apart in the source and are kept apart here.

Assays:
[1] = system: Human A2780 cell line; experiment: MTT cytotoxicity assay, cisplatin-sensitive ovarian A2780 cells, with or without BSO; format: cell-based; design: key to DMF vs. A2780 Control (Without BSO): DMF = IC50 without BSO / IC50 with BSO; conditions: for DMF vs. A2780 +10 μM BSO (MTC): IC50 without BSO / IC50 with 10 μM BSO (MTC); for DMF vs. A2780 Control (Without BSO): without BSO (reference)
From the text: (§1) The ovarian A2780 and 2008 cell lines are sensitive to cisplatin, while the corresponding 2780CP and 2008/C13* cell lines were selected for resistance following in vitro exposure to cisplatin. The SKOV-3 cell line was established from a patient who was resistant to cisplatin therapy and is considered a model of cisplatin resistance. The A2780 and 2780CP cells have wild-type p53 function, while SKOV-3 is devoid of p53 function. The p53 status for the 2008 and 2008/C131 cells is presently not known.
(§2) Procedure for Cytotoxic Evaluation. All cell lines are maintained in RPMI 1640 medium supplemented with 10% fetal bovine serum, 50 μg/ml penicillin, 50 μg/ml streptomycin, 100 μg/ml neomycin and 0.3 mg/ml L-glutamine. The ovarian lines also require 2 μg/ml insulin for maximal growth. Cells are grown as monolayers at 37° C. in a humidified atmosphere of 5% CO2:95% air. Cytotoxicity is determined by a standard MTT assay. Briefly, the exponentially-growing cells are trypsinized to dislodge them before use. After diluting the tumor cells to appropriate concentrations (2,000-30,000 cells/ml), 100 μl aliquots of the cell suspensions are added to each well of a 96-well microtiter plate. The cells are allowed to attach overnight, and then exposed for 24 hr to BSO at a concentration that is equal to or less than maximally tolerated concentration (MTC). At 22 hr after addition of BSO, the platinum complex is added, and 2 hr later the cells are washed and reincubated. After another 5 days, when control cells are in an exponential phase of growth, 50 μl of an MTT solution (3 mg/ml) is added to each well. Following a 3-hr incubation, the medium is removed and replaced by 50 μl of 100% DMSO to dissolve MTT formazan crystals. Plates are agitated on a plate shaker for 5 min, and absorbances are measured at 570 nm in a multiwell scanning spectrophotometer.
(§3) IC50 values, defined as the drug concentration (μM) inhibiting cell growth by 50% compared to control wells, are determined by fitting a sigmoidal curve to the data using a computer program. Resistance factor is calculated as a ratio of the IC50 against resistant cell line to the IC50 against parent cell line. The dose modification factor (DMF) is derived from a ratio of IC50 without BSO to that with BSO.

[2] = system: Human 2780CP cell line; experiment: MTT cytotoxicity assay, cisplatin-resistant ovarian 2780CP cells, with or without BSO; format: cell-based; design: key to DMF vs. 2780CP Control (Without BSO) / DMF Control / DMF +BSO (MTC): DMF = IC50 without BSO / IC50 with BSO; conditions: for DMF vs. 2780CP +10 μM BSO: IC50 without BSO / IC50 with 10 μM BSO; for DMF vs. 2780CP +3 mM BSO (MTC): IC50 without BSO / IC50 with 3 mM BSO (MTC); for DMF vs. 2780CP Control (Without BSO): without BSO (reference)
From the text: as §1, §2, §3

[3] = system: SKOV-3 cell line; experiment: MTT cytotoxicity assay, cisplatin-resistant SKOV-3 cells, with or without BSO; format: cell-based, Human; conditions: SKOV-3; for IC50: Table 4; for DMF +BSO (MTC) / DMF Control: Table 5; for DMF Control: absence of BSO (reference)
From the text: as §1, §2, §3

[4] = +10 μM BSO (MTC), 24 hr BSO, read-out: IC50 (μM) vs. A2780 +10 μM BSO (MTC)
[5] = without BSO, 2 hr platinum exposure, MTT after 5 days, read-out: IC50 (μM) vs. A2780 Control (Without BSO)
[6] = +10 μM BSO, read-out: IC50 (μM) vs. 2780CP +10 μM BSO
[7] = +3 mM BSO (MTC), read-out: IC50 (μM) vs. 2780CP +3 mM BSO (MTC)
[8] = without BSO, read-out: IC50 (μM) vs. 2780CP Control (Without BSO)
[9] = BSO at sub-MTC, read-out: IC50 +BSO (MTC)
[10] = absence of BSO, read-out: IC50 Control
[11] = IC50 2780CP with 10 μM BSO / IC50 A2780 without BSO
[12] = IC50 2780CP with 3 mM BSO (MTC) / IC50 A2780 without BSO
[13] = IC50 2780CP without BSO / IC50 A2780 without BSO

| Structure (SMILES) | IC50 [1, 4] | DMF vs. A2780 +10 μM BSO (MTC) [1] | DMF vs. A2780 Control (Without BSO) [1] | IC50 [1, 5] | IC50 [2, 6] | IC50 [2, 7] | DMF vs. 2780CP +10 μM BSO [2] | DMF vs. 2780CP +3 mM BSO (MTC) [2] | DMF vs. 2780CP Control (Without BSO) [2] | IC50 [2, 8] | IC50 [3, 9] | IC50 [3, 10] | DMF +BSO (MTC) ([3]; BSO at sub-MTC) | DMF Control [3] | Resistance Factor vs. 2780CP +10 μM BSO [2] | Resistance Factor vs. 2780CP +3 mM BSO (MTC) [2] | Resistance Factor vs. 2780CP Control (Without BSO) [2] | Resistance Factor vs. 2780CP +10 μM BSO [2, 11] | Resistance Factor vs. 2780CP +3 mM BSO (MTC) [2, 12] | Resistance Factor vs. 2780CP Control (Without BSO) [2, 13] |
| --- | --- | --- | --- | --- | --- | --- | --- | --- | --- | --- | --- | --- | --- | --- | --- | --- | --- | --- | --- | --- |
| [Cl][Pt]1([Cl])([Cl])([Cl])[NH][C@@H]2CCCC[C@H]2[NH]1 (racemic) [Complex 13] | 4.57 µM | 1.86 | 1.00 | 8.48 µM | 34.9 µM | 23.5 µM | 1.28 | 1.91 | 1.00 | 44.8 µM | – | – | – | – | – | – | – | – | – | – |
| CC(=O)[O][Pt]([NH2])([Cl])([Cl])([O]C(C)=O)[N]1CCCCCC1 [Complex 19] | – | – | – | – | – | – | – | – | – | – | 21.6 µM | 100 µM | 4.63 | 1.00 | – | – | – | – | – | – |
| N[C@@H]1CCCC[C@H]1N.[Cl][Pt+2]([Cl])([Cl])[Cl] [Complex 13, Tetraplatin, reference compound] | – | – | – | – | – | – | – | – | – | – | – | – | – | – | 4.12 | 2.77 | 5.28 | – | – | – |
| [NH2][Pt]([Cl])([Cl])([Cl])([Cl])[NH]C1CCCCC1 [Complex 15] | 0.72 µM | 1.26 | 1.00 | 0.91 µM | 10.8 µM | 4.34 µM | 1.43 | 3.55 | 1.00 | 15.4 µM | – | – | – | – | – | – | – | 11.9 | 4.77 | 16.9 |
| [NH2][Pt]([Cl])([Cl])[N]1CCC1 [Complex 9] | 3.02 µM | 1.41 | 1.00 | 4.27 µM | 18.7 µM | 8.2 µM | 1.45 | 3.32 | 1.00 | 27.2 µM | – | – | – | – | – | – | – | 4.38 | 1.92 | 6.37 |
| [NH2][Pt]([Cl])([Cl])[NH]C1CCCCCCC1 [Complex 8] | 0.61 µM | 1.26 | 1.00 | 0.77 µM | 5.97 µM | 2.35 µM | 1.24 | 3.15 | 1.00 | 7.41 µM | – | – | – | – | – | – | – | 7.75 | 3.05 | 9.62 |
| [NH2][Pt]([Cl])([Cl])[NH]C1CCC1 [Complex 4] | 0.77 µM | 1.34 | 1.00 | 1.03 µM | 16 µM | 15.8 µM | 1.04 | 1.05 | 1.00 | 16.6 µM | – | – | – | – | – | – | – | 15.5 | 15.3 | 16.1 |
| [NH2][Pt]([OH])([OH])([Cl])([Cl])[N]1CCCCCC1 [Complex 18] | – | – | – | – | – | – | – | – | – | – | 14.2 µM | 140 µM | 9.86 | 1.00 | – | – | – | – | – | – |
| [NH2][Pt]([OH])([OH])([Cl])([Cl])[NH]C1CCCCC1 [Complex 16] | 3.07 µM | 1.16 | 1.00 | 3.55 µM | 19.6 µM | 8.92 µM | 1.22 | 2.68 | 1.00 | 23.9 µM | – | – | – | – | – | – | – | 5.52 | 2.51 | 6.73 |
| [NH2][Pt]([Cl])([Cl])[NH]C1CCCC1 [Complex 5, Ammine/cyclopentylamine-dichloro-platinum(II)] | 0.66 µM | 1.11 | 1.00 | 0.73 µM | 14.5 µM | 9.07 µM | 1.05 | 1.68 | 1.00 | 15.2 µM | – | – | – | – | – | – | – | 19.9 | 12.4 | 20.8 |
| N[C@@H]1CCCC[C@H]1N.[OH][Pt+2]([OH])([Cl])[Cl] [Complex 14] | 1.17 µM | 1.07 | 1.00 | 1.25 µM | 15.5 µM | 9.54 µM | 1.02 | 1.66 | 1.00 | 15.8 µM | – | – | – | – | – | – | – | 12.4 | 7.63 | 12.6 |
| [NH2][Pt]([Cl])([Cl])[N]1CCCC1 [Complex 10] | 2.9 µM | 1.41 | 1.00 | 4.08 µM | 28.2 µM | 17.2 µM | 1.32 | 2.16 | 1.00 | 37.2 µM | – | – | – | – | – | – | – | 6.91 | 4.22 | 9.12 |
| [Cl][Pt]1([Cl])[NH][C@@H]2CCCC[C@H]2[NH]1 [Complex 2] | 0.41 µM | 1.37 | 1.00 | 0.56 µM | 3.69 µM | 2.46 µM | 1.25 | 1.87 | 1.00 | 4.61 µM | – | – | – | – | – | – | – | 6.59 | 4.39 | 8.23 |
| [NH2][Pt]([Cl])([Cl])[NH]C1CC1 [Complex 3] | 3.46 µM | 1.05 | 1.00 | 3.64 µM | 62.2 µM | 48.8 µM | 1.02 | 1.31 | 1.00 | 63.7 µM | – | – | – | – | – | – | – | 17.1 | 13.4 | 17.5 |
| [NH2][Pt]([Cl])([Cl])[NH]C1CCCCC1 [Complex 6] | 0.5 µM | 1.26 | 1.00 | 0.63 µM | 6.98 µM | 4.19 µM | 1.08 | 1.80 | 1.00 | 7.55 µM | – | – | – | – | – | – | – | 11.1 | 6.65 | 12.0 |
| [NH2][Pt]([NH2])([Cl])[Cl] [Complex 1] | 4.25 µM | 1.59 | 1.00 | 6.75 µM | 82 µM | 58.3 µM | 1.23 | 1.73 | 1.00 | 101 µM | – | – | – | – | – | – | – | – | – | – |
